According to patent US20220142955A1, “METHODS OF TREATING ORGANIC ACIDEMIAS” (HemoShear Therapeutics, Inc., priority 2019, published 2022):
Read-outs that look alike come from different tables or passages of the source.

How the values were obtained:
Format in all cases: cell-based, human
[1] = tested on: PA primary hepatocytes; experiment: Static cell culture, low/high propiogenic media, PA primary hepatocytes; conditions: PA pHeps
Protocol: (§1) Unlike the HemoShear Technology, this assay is carried out without constant perfusion, utilizing cell culture media that was customized to mimic plasma levels of propiogenic sources (amino acids and ketoacids) in PA and MMA patients during periods of relative metabolic stability (low propiogenic media) and acute metabolic crisis (high propiogenic media). PA and MMA pHeps, in static cell culture, were treated with Compound 5 (concentrations ranging from 0.1 μM to 100 μM) for 30 minutes in low propiogenic media, followed by either a continuation of low propiogenic media or a switch to the high propiogenic media for 1 hour. The media used during the 1-hour incubation contained propiogenic SIL amino acids and ketoacids which are metabolized into labeled P-CoA and M-CoA in the cells. The SIL amino acids and ketoacids were a mix of ^13C and MeD8 labelling, but their catabolism produced a SIL P-CoA (denoted as ^13C-P-CoA for simplicity) with the same mass, independent of the type of SIL (also true for ^13C-M-CoA).

[2] = tested on: primary hepatocytes of propionic acidemia patients; experiment: Propionyl-CoA from various sources in PA primary hepatocytes (Examples 2, 3); conditions: Homo sapiens, Hepatocyte, read-out: concentration of propionyl-CoA EC50
Protocol: Primary hepatocytes isolated from livers of propionic acidemia patients are treated with increasing doses of compound 1 (0, 1, 3, 10, 30, 100, 300, 1000 μM) for 30 min. After 30 min the cells are challenged with the different sources of P-CoA, which may include ^13C-ketoisovaleric acid (KIVA) (1 mM), […] (ILE) (3 mM), ^13C-threonine (THR) (5 mM), ^13C-methionine (MET) (5 mM), ^13C-heptanoate (100 μM), or ^13C-propionate (5 mM) for 60 minutes. At the end of the challenge period, media is removed and the cells are lysed with 70% MeCN and 0.1% TFA containing 100 μM of ethymalonyl-CoA as an internal standard and harvested. Cell lysates are processed for HTMS/MS analysis.
Primary hepatocytes isolated from livers of propionic acidemia patients are treated with increasing doses of compound 5 (0, 0.1, 0.3, 1, 3, 10, 30, 100 μM) for 30 minutes. After 30 minutes the cells are challenged with the different sources of P-CoA, which may include ^13C-KIVA (1 mM), ^13C-isoleucine (3 mM), ^13C-threonine (5 mM), ^13C-methionine (5 mM), ^13C-heptanoate (100 μM), or ^13C-propionate (5 mM) for 60 minutes. At the end of the challenge period, media is removed and the cells are lysed with 70% MeCN and 0.1% TFA containing 100 μM of ethymalonyl-CoA as an internal standard and harvested. Cell lysates are processed for HTMS/MS analysis.

[3] = tested on: normal primary hepatocytes; experiment: HemoShear Technology, normal primary hepatocytes (Example 11); conditions: Normal pHeps
[4] = tested on: MMA primary hepatocytes; experiment: Static cell culture, low/high propiogenic media, MMA primary hepatocytes; conditions: MMA pHeps; for EC50 / EC90: Homo sapiens, Hepatocyte
Protocol: as §1

[5] = low propiogenic, static culture
[6] = high propiogenic, static culture

In the case of `CCC(C)(C)C(=O)O` [Compound 5, 2,2-dimethybutanoic acid], the “13C-Propionyl-CoA (13C-P-CoA) % change at 30 μM” value ([1]; low propiogenic media, static) is reported as −76.4±12.6%, the “12C-Acetyl-CoA Percent change (30 μM)” value [1, 5] is reported as −36.6 ± 13.5% and the “CoASH Percent change (30 μM)” value [1, 5] is reported as −55.2 ± 7.1%. The EC50 ([2]; 1 mM 13C-KIVA) was 890 nM, the EC50 ([2]; 3 mM 13C-ILE) was 420 nM and the EC50 ([2]; 5 mM 13C-THR) was 1240 nM. It also gave an EC50 ([2]; 5 mM 13C-propionate) of 15300 nM, an EC50 ([3]; Homo sapiens, Hepatocyte, read-out: Compound 5-CoA (formation) EC50) of 8.3 ± 8 µM and an EC90 ([3]; Homo sapiens, Hepatocyte, read-out: Compound 5-CoA (formation) EC90) of 26.1 ± 3.1 µM. For the same molecule, the “12C-Acetyl-CoA Percent change at 30 μM” value [3] was 20 ± 2.9%, the “CoASH Percent change at 30 μM” value [3] was −35.2 ± 3% and the EC50 ([4]; high propiogenic media, static, read-out: 12C-Methylmalonyl-CoA (13C-M-CoA) EC50) was 2700 ± 1600 nM. The EC90 ([4]; high propiogenic media, static, read-out: 12C-Methylmalonyl-CoA (13C-M-CoA) EC90) was 21.2 ± 2 µM, the EC50 ([4]; high propiogenic media, static, read-out: 13C-Methymalonic acid EC50) was 1100 ± 900 nM and the EC90 ([4]; high propiogenic media, static, read-out: 13C-Methymalonic acid EC90) was 4.6 ± 3 µM. It also gave an EC50 ([4]; high propiogenic media, static, read-out: 13C-Propionyl-CoA (13C-P-CoA) EC50) of 1600 ± 800 nM, an EC90 ([4]; high propiogenic media, static, read-out: 13C-Propionyl-CoA (13C-P-CoA) EC90) of 48.2 ± 47.5 µM and an EC50 ([4]; high propiogenic, static culture, read-out: 12C-Acetyl-CoA EC50) of 1400 ± 1400 nM. The EC90 ([4]; high propiogenic, static culture, read-out: 12C-Acetyl-CoA EC90) was 6.4 ± 7.1 µM, the EC50 ([4]; high propiogenic, static culture, read-out: CoASH EC50) was 13100 ± 14800 nM and the EC90 ([4]; high propiogenic, static culture, read-out: CoASH EC90) was 65.6 ± 81.2 µM. It also gave an EC50 ([4]; high propiogenic, static culture, read-out: Compound 5-CoA (formation) EC50) of 5400 ± 2800 nM, an EC90 ([4]; high propiogenic, static culture, read-out: Compound 5-CoA (formation) EC90) of 80.1 ± 57 µM and an EC50 ([4]; low propiogenic media, static, read-out: 12C-Methylmalonyl-CoA (13C-M-CoA) EC50) of 2900 ± 1600 nM. The EC90 ([4]; low propiogenic media, static, read-out: 12C-Methylmalonyl-CoA (13C-M-CoA) EC90) was 30.9 ± 16.2 µM, the EC50 ([4]; low propiogenic media, static, read-out: 13C-Methymalonic acid EC50) was 1200 ± 1300 nM and the EC90 ([4]; low propiogenic media, static, read-out: 13C-Methymalonic acid EC90) was 5.2 ± 3.3 µM. It also gave an EC50 ([4]; low propiogenic media, static, read-out: 13C-Propionyl-CoA (13C-P-CoA) EC50) of 1300 ± 600 nM, an EC90 ([4]; low propiogenic media, static, read-out: 13C-Propionyl-CoA (13C-P-CoA) EC90) of 15.7 ± 18 µM and an EC50 ([4]; low propiogenic, static culture, read-out: 12C-Acetyl-CoA EC50) of 2500 ± 2600 nM. The EC90 ([4]; low propiogenic, static culture, read-out: 12C-Acetyl-CoA EC90) was 28.4 ± 52 µM, the EC50 ([4]; low propiogenic, static culture, read-out: CoASH EC50) was 2300 ± 1600 nM and the EC90 ([4]; low propiogenic, static culture, read-out: CoASH EC90) was 14.2 ± 13.5 µM. For the same molecule, the EC50 ([4]; low propiogenic, static culture, read-out: Compound 5-CoA (formation) EC50) was 2000 ± 700 nM, the EC90 ([4]; low propiogenic, static culture, read-out: Compound 5-CoA (formation) EC90) was 18 ± 15.7 µM and the “12C-Methylmalonyl-CoA (13C-M-CoA) % change at 30 μM” value ([4]; high propiogenic media, static) was −73±5.8%. For the same molecule, the “13C-Methymalonic acid % change at 30 μM” value ([4]; high propiogenic media, static) was −91 ± 4%, the “13C-Propionyl-CoA (13C-P-CoA) % change at 30 μM” value ([4]; high propiogenic media, static) was −75.9±7.3% and the “12C-Acetyl-CoA Percent change (30 μM)” value [4, 6] was −14.6 ± 12.6%. For the same molecule, the “CoASH Percent change (30 μM)” value [4, 6] was −28.7 ± 7.3%, the “12C-Methylmalonyl-CoA (13C-M-CoA) % change at 30 μM” value ([4]; low propiogenic media, static) was −76.5±13.2% and the “13C-Methymalonic acid % change at 30 μM” value ([4]; low propiogenic media, static) was −83.2 ± 5%. The “13C-Propionyl-CoA (13C-P-CoA) % change at 30 μM” value ([4]; low propiogenic media, static) was −77.6±9.8%, the “12C-Acetyl-CoA Percent change (30 μM)” value [4, 5] was −35.5 ± 18.1% and the “CoASH Percent change (30 μM)” value [4, 5] was −47.7 ± 13.4%.
